# From ChEMBL document CHEMBL4837181 (Eur J Med Chem, 2020)
# Where a SMILES comes first, the peptide text is derived from it. [ ]: non-standard residue; d: D form. dTrp(1-Me) = Cn1cc(C[C@@H](N)C(=O)O)c2ccccc21
# Assays:
# [1] = Dose normalized AUC (0 to infinity) in rat at 10 mg/kg, po measured upto 72 hrs by LC-MS/MS analysis; format: ADME, organism-based; details: in vivo
# [2] = Chemical stability of compound in simulated gastric fluid assessed as compound remaining at 5 uM measured after 24 hrs by LC-MS/MS analysis; format: ADME, physicochemical; details: read-out: Stabilty
# [3] = Chemical stability of compound in simulated intestinal fluid assessed as compound remaining at 5 uM measured after 24 hrs by LC-MS/MS analysis; format: ADME, physicochemical; details: read-out: Stabilty
# [4] = Chemical stability of compound in PBS buffer assessed as compound remaining at pH 7.4 at 5 uM measured after 6 hrs by LC-MS/MS analysis; format: physicochemical; details: read-out: Stabilty
# [5] = Chemical stability of compound in simulated intestinal fluid assessed as compound remaining at 5 uM measured after 3 hrs by LC-MS/MS analysis; format: ADME, physicochemical; details: read-out: Stabilty
# [6] = Stability in human plasma assessed as parent compound remaining measured after 24 hrs by LC-MS/MS analysis; format: ADME, cell-free; details: read-out: Stabilty
# [7] = Chemical stability of compound in simulated gastric fluid assessed as compound remaining at 5 uM measured after 1.5 hrs by LC-MS/MS analysis; format: ADME, physicochemical; details: read-out: Stabilty
# [8] = Stability in rat plasma assessed as parent compound remaining measured after 2 hrs by LC-MS/MS analysis; format: ADME, cell-free; details: read-out: Stabilty
# [9] = Chemical stability of compound in 0.1 N aqueous HCl buffer assessed as compound remaining at pH 1 at 5 uM measured after 1.5 hrs by LC-MS/MS analysis; format: physicochemical; details: pH 1, 1.5 h
# [10] = Dose normalized Cmax in rat at 10 mg/kg, po measured upto 72 hrs by LC-MS/MS analysis; format: ADME, organism-based; details: in vivo
# [11] = Stability in mouse plasma assessed as parent compound remaining measured after 2 hrs by LC-MS/MS analysis; format: ADME, cell-free; details: read-out: Stabilty
# [12] = Stability in human plasma assessed as parent compound remaining measured after 6 hrs by LC-MS/MS analysis; format: ADME, cell-free; details: read-out: Stabilty
# [13] = Change in normalised Cmax in rat at 10 mg/kg, po measured upto 72 hrs by LC-MS/MS analysis; format: ADME, organism-based; details: in vivo
# [14] = Chemical stability of compound in 0.1 N aqueous HCl buffer assessed as compound remaining at pH 1 at 5 uM measured after 24 hrs by LC-MS/MS analysis; format: physicochemical; details: pH 1, 24 h
# [15] = Change in Cmax in rat at 37 umol/kg, po measured upto 72 hrs by LC-MS/MS analysis; format: ADME, organism-based; details: in vivo, at 37 µmol/kg
# [16] = Change in normalised AUCinfinity in rat at 10 mg/kg, po measured upto 72 hrs by LC-MS/MS analysis; format: ADME, organism-based; details: in vivo
# [17] = Chemical stability of compound in saline assessed as compound remaining at 5 uM measured after 24 hrs by LC-MS/MS analysis; format: physicochemical; details: read-out: Stabilty
# [18] = Change in AUC (infinity) in rat at 37 umol/kg, po measured upto 72 hrs by LC-MS/MS analysis; format: ADME, organism-based; details: in vivo, at 37 µmol/kg
# [19] = Chemical stability of compound in PBS buffer assessed as compound remaining at pH 7.4 at 5 uM measured after 24 hrs by LC-MS/MS analysis; format: physicochemical; details: read-out: Stabilty
smiles,measurement,setting,value
CCOC(=O)[C@@H](Cc1cn(C)c2ccccc12)NC(=O)[C@@H](N)CCC(N)=O.Cl,AUC/dose,[1],806 µM·h
same,"remaining at 24 h, 5 µM",[2],88%
same,"remaining at 24 h, 5 µM",[3],1%
same,"remaining at 6 h, 5 µM",[4],67%
same,"remaining at 3 h, 5 µM",[5],70%
same,remaining at 24 h,[6],0%
same,"remaining at 1.5 h, 5 µM",[7],108%
same,remaining at 2 h,[8],0%
same,Stabilty,[9],73%
same,Cmax/dose,[10],24.4 µM
same,remaining at 2 h,[11],0%
same,remaining at 6 h,[12],23%
same,Activity,[13],41%
same,Stabilty,[14],85%
same,Activity,[15],12%
same,Activity,[16],58%
same,"remaining at 24 h, 5 µM",[17],85%
same,Activity,[18],-1%
same,"remaining at 24 h, 5 µM",[19],17%
Cl.Cn1cc(C[C@@H](NC(=O)[C@@H](N)CCCCN)C(=O)O)c2ccccc21,AUC/dose,[1],795 µM·h
same,"remaining at 24 h, 5 µM",[2],92%
same,"remaining at 24 h, 5 µM",[3],96%
same,"remaining at 6 h, 5 µM",[4],93%
same,"remaining at 3 h, 5 µM",[5],96%
same,remaining at 24 h,[6],78%
same,"remaining at 1.5 h, 5 µM",[7],97%
same,remaining at 2 h,[8],95%
same,Stabilty,[9],89%
same,Cmax/dose,[10],16.7 µM
same,remaining at 2 h,[11],77%
same,remaining at 6 h,[12],96%
same,Activity,[13],-3%
same,Stabilty,[14],100%
same,Activity,[15],8%
same,Activity,[16],56%
same,"remaining at 24 h, 5 µM",[17],100%
same,Activity,[18],-10%
same,"remaining at 24 h, 5 µM",[19],57%
Cl.Cn1cc(C[C@@H](NC(=O)CN)C(=O)O)c2ccccc21 (H-Gly-[dTrp(1-Me)]-OH),AUC/dose,[1],599 µM·h
same,"remaining at 24 h, 5 µM",[2],78%
same,"remaining at 24 h, 5 µM",[3],38%
same,"remaining at 6 h, 5 µM",[4],83%
same,"remaining at 3 h, 5 µM",[5],64%
same,remaining at 24 h,[6],68%
same,"remaining at 1.5 h, 5 µM",[7],80%
same,remaining at 2 h,[8],56%
same,Stabilty,[9],64%
same,Cmax/dose,[10],28 µM
same,remaining at 2 h,[11],100%
same,remaining at 6 h,[12],78%
same,Activity,[13],62%
same,Stabilty,[14],99%
same,Activity,[15],10%
same,Activity,[16],18%
same,"remaining at 24 h, 5 µM",[17],99%
same,Activity,[18],1%
same,"remaining at 24 h, 5 µM",[19],65%
C[C@H](N)C(=O)N[C@H](Cc1cn(C)c2ccccc12)C(=O)O.Cl,AUC/dose,[1],310 µM·h
same,"remaining at 24 h, 5 µM",[2],25%
same,"remaining at 24 h, 5 µM",[3],12%
same,"remaining at 6 h, 5 µM",[4],58%
same,"remaining at 3 h, 5 µM",[5],36%
same,remaining at 24 h,[6],0%
same,"remaining at 1.5 h, 5 µM",[7],20%
same,remaining at 2 h,[8],92%
same,Stabilty,[9],100%
same,Cmax/dose,[10],13.4 µM
same,remaining at 2 h,[11],94%
same,remaining at 6 h,[12],65%
same,Activity,[13],-22%
same,Stabilty,[14],40%
same,Activity,[16],-39%
same,"remaining at 24 h, 5 µM",[17],40%
same,"remaining at 24 h, 5 µM",[19],34%
CC(C)C[C@H](N)C(=O)N[C@H](Cc1cn(C)c2ccccc12)C(=O)O.Cl,AUC/dose,[1],617 µM·h
same,"remaining at 24 h, 5 µM",[2],97%
same,"remaining at 24 h, 5 µM",[3],0%
same,"remaining at 6 h, 5 µM",[4],95%
same,"remaining at 3 h, 5 µM",[5],66%
same,remaining at 24 h,[6],82%
same,"remaining at 1.5 h, 5 µM",[7],95%
same,remaining at 2 h,[8],100%
same,Stabilty,[9],92%
same,Cmax/dose,[10],24.4 µM
same,remaining at 2 h,[11],88%
same,remaining at 6 h,[12],87%
same,Activity,[13],41%
same,Stabilty,[14],99%
same,Activity,[16],21%
same,"remaining at 24 h, 5 µM",[17],99%
same,"remaining at 24 h, 5 µM",[19],95%
Cl.Cn1cc(C[C@@H](NC(=O)[C@@H](N)Cc2c[nH]c3ccccc23)C(=O)O)c2ccccc21,AUC/dose,[1],415 µM·h
same,"remaining at 24 h, 5 µM",[2],73%
same,"remaining at 24 h, 5 µM",[3],69%
same,"remaining at 6 h, 5 µM",[4],55%
same,"remaining at 3 h, 5 µM",[5],88%
same,remaining at 24 h,[6],94%
same,"remaining at 1.5 h, 5 µM",[7],81%
same,remaining at 2 h,[8],76%
same,Stabilty,[9],52%
same,Cmax/dose,[10],12 µM
same,remaining at 2 h,[11],90%
same,remaining at 6 h,[12],97%
same,Activity,[13],-31%
same,Stabilty,[14],61%
same,Activity,[16],-18%
same,"remaining at 24 h, 5 µM",[17],61%
same,"remaining at 24 h, 5 µM",[19],33%
Cl.Cn1cc(C[C@@H](NC(=O)[C@@H](N)CCC(=O)O)C(=O)O)c2ccccc21,AUC/dose,[1],574 µM·h
same,"remaining at 24 h, 5 µM",[2],88%
same,"remaining at 24 h, 5 µM",[3],85%
same,"remaining at 6 h, 5 µM",[4],81%
same,"remaining at 3 h, 5 µM",[5],88%
same,remaining at 24 h,[6],86%
same,"remaining at 1.5 h, 5 µM",[7],90%
same,remaining at 2 h,[8],100%
same,Stabilty,[9],99%
same,Cmax/dose,[10],17.6 µM
same,remaining at 2 h,[11],100%
same,remaining at 6 h,[12],90%
same,Activity,[13],2%
same,Stabilty,[14],91%
same,Activity,[16],13%
same,"remaining at 24 h, 5 µM",[17],91%
same,"remaining at 24 h, 5 µM",[19],60%
Cl.Cn1cc(C[C@@H](NC(=O)[C@H](N)Cc2c[nH]c3ccccc23)C(=O)O)c2ccccc21,AUC/dose,[1],182 µM·h
same,"remaining at 24 h, 5 µM",[2],48%
same,"remaining at 24 h, 5 µM",[3],51%
same,"remaining at 6 h, 5 µM",[4],81%
same,"remaining at 3 h, 5 µM",[5],53%
same,remaining at 24 h,[6],32%
same,"remaining at 1.5 h, 5 µM",[7],51%
same,remaining at 2 h,[8],79%
same,Stabilty,[9],53%
same,Cmax/dose,[10],3.2 µM
same,remaining at 2 h,[11],82%
same,remaining at 6 h,[12],77%
same,Activity,[13],-82%
same,Stabilty,[14],87%
same,Activity,[16],-64%
same,"remaining at 24 h, 5 µM",[17],87%
same,"remaining at 24 h, 5 µM",[19],45%
CCOC(=O)[C@@H](Cc1cn(C)c2ccccc12)NC(=O)[C@@H](N)[C@@H](C)CC.Cl,AUC/dose,[1],606 µM·h
same,"remaining at 24 h, 5 µM",[2],97%
same,"remaining at 24 h, 5 µM",[3],38%
same,"remaining at 6 h, 5 µM",[4],97%
same,"remaining at 3 h, 5 µM",[5],91%
same,remaining at 24 h,[6],16%
same,"remaining at 1.5 h, 5 µM",[7],98%
same,remaining at 2 h,[8],0%
same,Stabilty,[9],95%
same,Cmax/dose,[10],12.8 µM
same,remaining at 2 h,[11],0%
same,remaining at 6 h,[12],75%
same,Activity,[13],-26%
same,Stabilty,[14],97%
same,Activity,[16],19%
same,"remaining at 24 h, 5 µM",[17],97%
same,"remaining at 24 h, 5 µM",[19],63%
Cl.Cn1cc(C[C@@H](NC(=O)[C@@H](N)CCC(N)=O)C(=O)O)c2ccccc21,AUC/dose,[1],372 µM·h
same,"remaining at 24 h, 5 µM",[2],83%
same,"remaining at 24 h, 5 µM",[3],0%
same,"remaining at 6 h, 5 µM",[4],100%
same,"remaining at 3 h, 5 µM",[5],53%
same,remaining at 24 h,[6],83%
same,"remaining at 1.5 h, 5 µM",[7],83%
same,remaining at 2 h,[8],100%
same,Stabilty,[9],65%
same,Cmax/dose,[10],8.5 µM
same,remaining at 2 h,[11],49%
same,remaining at 6 h,[12],93%
same,Activity,[13],-51%
same,Stabilty,[14],78%
same,Activity,[16],-27%
same,"remaining at 24 h, 5 µM",[17],78%
same,"remaining at 24 h, 5 µM",[19],74%
